Source: patent US20030139362A1, “Methods of treating cognitive decline disease conditions with androgens” (priority 2000, published 2003)

Key:
[1] = tested on: female apoE4 mice; conditions: for probe trial (platform removed): time searching in the target quadrant: female apoE4 mice, P<0.05, Tukey-Kramer test, placebo-treated mice did not
Source text: We tested whether administration of androgens might be successful for improving cognition in apoE4 female mice.

[2] = plasma hormone levels by radioimmunoassay (RIA); format: in vivo; conditions: testosterone-treated female mice, subcutaneous Silastic capsule, after the behavioral testing
[3] = tested on: women; conditions: literature: Sherwin 1988 (surgically menopausal women); Yaffe 2000 (women with apoE4); cited from earlier work
[4] = six-month-old female apoE4 mice, subcutaneous Silastic capsule, tested eight days after implantation

Compound	probe trial (platform removed): time searching in the target quadrant [1]	memory retention in the water maze [1, 4]	plasma testosterone levels [2] [ng/mL]	learning in the water maze (hidden platform sessions) ([1]; six-month-old female apoE4 mice, subcutaneous Silastic capsule, tested eight days after implantation, P<0.05 vs placebo)	cognition / cognitive function in women [3]
C[C@]12CCC(=O)C[C@@H]1CC[C@@H]1[C@@H]2CC[C@]2(C)[C@@H](O)CC[C@@H]12 [dihydrotestosterone]	spent significantly more time searching in the target quadrant than in any of the other quadrants	improved memory retention	–	–	–
C[C@]12CC[C@H]3[C@@H](CCC4=CC(=O)CC[C@@]43C)[C@@H]1CC[C@@H]2O [testosterone]	spent significantly more time searching in the target quadrant than in any of the other quadrants	improved memory retention	5.61 ± 0.74	improved learning	improved cognition in surgically menopausal women
Estrogen	–	–	–	–	failed to preserve cognitive function in women with apoE4
